Measurements taken from US10064848B2, “Pyridic ketone derivatives, method of preparing same, and pharmaceutical application thereof” (Shanghai Hengrui Pharmaceutical Co., Ltd., priority 2013, dated 2018).

Columns and labels:
CYP3A4t = molecular target: T1, CYP3A4t (Homo sapiens, UniProt P08684); assay: In vitro CYP enzyme inhibition, human liver microsomes; assay type: in vitro ADME; details: probe Testosterone, single point method
T1 construct: from tissue; host or cells: human liver microsomes
T1 sequence (P08684 whole entry): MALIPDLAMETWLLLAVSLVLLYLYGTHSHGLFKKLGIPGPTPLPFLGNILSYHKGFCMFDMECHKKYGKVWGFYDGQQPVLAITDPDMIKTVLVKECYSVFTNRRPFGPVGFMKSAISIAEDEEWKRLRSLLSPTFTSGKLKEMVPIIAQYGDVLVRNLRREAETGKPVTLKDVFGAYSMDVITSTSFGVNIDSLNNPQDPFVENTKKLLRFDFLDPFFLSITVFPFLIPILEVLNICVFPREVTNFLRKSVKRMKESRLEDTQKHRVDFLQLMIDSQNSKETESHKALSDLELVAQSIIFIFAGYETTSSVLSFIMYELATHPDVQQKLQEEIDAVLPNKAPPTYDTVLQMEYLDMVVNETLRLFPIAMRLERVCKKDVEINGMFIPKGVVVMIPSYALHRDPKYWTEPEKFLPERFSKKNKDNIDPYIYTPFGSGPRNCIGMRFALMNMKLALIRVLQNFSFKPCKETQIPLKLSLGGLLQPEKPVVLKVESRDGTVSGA
Method: (§1) Human liver microsome incubation system was used to reflect the activity of enzymes based on the amount of metabolites produced. Enzyme inhibition of the test compounds was investigated on CYP1A2, CYP2C9, […], CYP3A4m, CYP3A4t and CYP2C19, and IC50 values (a concentration of the test compound that is required for 50% inhibition of enzyme activity) were measured. […] The appropriate amount of test compound standard sample was weighed, and diluted with DMSO to 50 mM to obtain stock solution I. The stock solution I was diluted with PBS to 100 μM to obtain the reaction liquid which is to be used in incubation. [table] The reaction mixture was prepared: 60 μL [table] The above mixture was preincubated for 5 minutes at 37° C., followed by addition of 40 μL of NADPH (2.5 mM, PBS formulation). The mixture solution was incubated for 20 minutes at 37° C. All incubated samples were set to double samples. 300 μL ice-cold acetonitrile was added to terminate the reaction. The reaction solution was added with 100 μl internal standard, mixed uniformly, and centrifuged for 10 minutes at 3500 rpm. The supernatant was transferred to the LC-MS/MS analysis. The activity of enzymes was reflected by the production amount of metabolites. Using a single point method, the formula was calculated as follows: According to the known literature: IC50>10 μM belongs to weaker inhibition, 1 μM<IC50<10 μM belong to moderate inhibition, IC50<1 μM belong to strong inhibition.

CYP2C6 = CYP2C6 (Homo sapiens, UniProt P10635); assay: as above; assay type: in vitro ADME; details: single point method
Sequence of CYP2C6 (P10635 whole entry): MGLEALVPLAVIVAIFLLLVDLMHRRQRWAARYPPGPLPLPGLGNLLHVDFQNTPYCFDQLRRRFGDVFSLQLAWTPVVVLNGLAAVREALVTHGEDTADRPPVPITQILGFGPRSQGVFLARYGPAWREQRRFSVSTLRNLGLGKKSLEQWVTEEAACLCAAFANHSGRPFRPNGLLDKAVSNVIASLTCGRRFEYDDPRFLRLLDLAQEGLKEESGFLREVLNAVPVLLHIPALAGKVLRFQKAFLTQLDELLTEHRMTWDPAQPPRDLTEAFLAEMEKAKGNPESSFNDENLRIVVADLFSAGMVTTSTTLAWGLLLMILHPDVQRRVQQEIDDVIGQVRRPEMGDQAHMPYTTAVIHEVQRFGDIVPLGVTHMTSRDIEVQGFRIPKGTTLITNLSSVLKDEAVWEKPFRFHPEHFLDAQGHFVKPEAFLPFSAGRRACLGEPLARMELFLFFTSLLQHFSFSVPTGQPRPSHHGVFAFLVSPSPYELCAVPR
Method: as §1

CYP3A4m = molecular target: T2, CYP3A4m (Homo sapiens, UniProt P08684); assay: as above; assay type: in vitro ADME; details: probe Midazolam, single point method
T2 construct: from tissue; host or cells: human liver microsomes
T2 sequence (P08684 whole entry): as the sequence (P08684 whole entry) above
Method: as §1

CYP2C9 = molecular target: T3, CYP2C9 (Homo sapiens, UniProt P11712); assay: as above; assay type: in vitro ADME; details: probe Diclofenac, single point method
T3 construct: from tissue; host or cells: human liver microsomes
T3 sequence (P11712 whole entry): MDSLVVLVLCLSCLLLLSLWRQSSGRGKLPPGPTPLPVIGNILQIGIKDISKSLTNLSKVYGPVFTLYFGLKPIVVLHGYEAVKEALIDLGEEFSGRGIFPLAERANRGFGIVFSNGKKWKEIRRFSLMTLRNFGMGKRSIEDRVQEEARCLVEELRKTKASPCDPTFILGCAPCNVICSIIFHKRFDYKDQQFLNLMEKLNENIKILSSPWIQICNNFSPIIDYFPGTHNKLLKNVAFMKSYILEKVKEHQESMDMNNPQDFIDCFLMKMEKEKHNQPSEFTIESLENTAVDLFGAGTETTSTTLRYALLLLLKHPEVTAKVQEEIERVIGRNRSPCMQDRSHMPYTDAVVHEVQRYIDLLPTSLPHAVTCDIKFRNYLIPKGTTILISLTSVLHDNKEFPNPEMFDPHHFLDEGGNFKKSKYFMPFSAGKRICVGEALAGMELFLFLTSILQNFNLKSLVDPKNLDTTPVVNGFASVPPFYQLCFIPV
Method: as §1

CYP2C19 = molecular target: T4, CYP2C19 (Homo sapiens, UniProt P33261); assay: as above; assay type: in vitro ADME; details: probe (S)-Mephenytoin, single point method
T4 construct: from tissue; host or cells: human liver microsomes
T4 sequence (P33261 whole entry): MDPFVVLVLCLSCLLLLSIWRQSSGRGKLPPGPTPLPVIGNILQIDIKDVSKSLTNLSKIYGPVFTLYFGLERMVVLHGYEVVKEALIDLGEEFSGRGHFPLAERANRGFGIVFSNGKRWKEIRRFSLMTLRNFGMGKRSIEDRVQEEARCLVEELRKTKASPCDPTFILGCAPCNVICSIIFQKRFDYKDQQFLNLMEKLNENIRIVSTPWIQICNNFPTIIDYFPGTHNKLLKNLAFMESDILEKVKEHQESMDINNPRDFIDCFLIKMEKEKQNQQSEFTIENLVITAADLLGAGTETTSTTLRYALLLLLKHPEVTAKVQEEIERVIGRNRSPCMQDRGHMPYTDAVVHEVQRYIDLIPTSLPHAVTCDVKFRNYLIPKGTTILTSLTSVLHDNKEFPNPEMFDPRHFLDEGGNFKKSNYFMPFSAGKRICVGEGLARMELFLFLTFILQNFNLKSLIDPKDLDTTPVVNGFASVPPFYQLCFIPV
Method: as §1

CYP1A2 = molecular target: T5, CYP1A2 (Homo sapiens, UniProt P05177); assay: as above; assay type: in vitro ADME; details: probe Phenacetin, single point method
T5 construct: from tissue; host or cells: human liver microsomes
T5 sequence (P05177 1-516): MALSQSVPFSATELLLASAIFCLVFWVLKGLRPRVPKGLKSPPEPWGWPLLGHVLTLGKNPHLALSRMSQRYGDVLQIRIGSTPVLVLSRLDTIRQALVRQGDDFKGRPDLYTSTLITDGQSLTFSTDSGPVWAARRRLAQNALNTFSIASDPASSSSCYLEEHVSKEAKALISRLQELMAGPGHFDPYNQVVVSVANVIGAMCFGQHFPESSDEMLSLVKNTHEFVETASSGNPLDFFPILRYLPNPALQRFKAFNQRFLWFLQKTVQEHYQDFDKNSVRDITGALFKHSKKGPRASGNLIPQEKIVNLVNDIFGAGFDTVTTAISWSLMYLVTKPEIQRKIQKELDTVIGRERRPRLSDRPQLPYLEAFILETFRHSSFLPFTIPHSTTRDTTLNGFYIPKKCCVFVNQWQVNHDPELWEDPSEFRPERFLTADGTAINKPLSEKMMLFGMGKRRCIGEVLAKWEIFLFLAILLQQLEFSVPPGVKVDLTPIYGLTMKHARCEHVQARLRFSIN
Method: as §1

Colo205 cell = assay: Proliferation inhibition on Colo205 (CCK8); assay type: cell-based; details: Homo sapiens, COLO 205, Colo205, 72 hours
Text: Cell line used in the assay: Colo205 (Cell Bank of the Chinese Academy of Sciences, Catalog No. TCHu102).
The following in vitro cell assay is to determine the activity of the compounds of the present invention for inhibiting the proliferation of human colon cancer cell, and the activity is expressed as IC50. General programs of this kind of assay were as follows: First, the cell line to be tested (purchased from Cell Bank of the Chinese Academy of Sciences) was inoculated in a 96-well culture plate with a suitable cell concentration of 4000 cells/mL medium, and was cultured in a carbon dioxide incubator at 37° C., then grown overnight. The medium was replaced by new medium added with a series of concentrations (10000 nM, 1000 nM, 100 nM, 10 nM, 1 nM, 0.1 nM) of the test compound solutions. The plates were placed back in the incubator, and continuously cultured for 72 hours. After 72 hours, CCK8 (Cell Counting Kit-8, Catalog No.: CK04, purchased from colleagues chemical company) method was used to determine the proliferation inhibition activity of the test compounds. IC50 values were calculated from the inhibition data of the test compounds at a series of different concentrations.
The above assay was used to determine the biochemical activity of the compounds of the present invention.

[1] = molecular target: T6, MEK1 (Recombinant Human Protein) (Homo sapiens, UniProt Q02750); assay: MEK1 kinase inhibition assay (Z'-LYTE Kinase Assay Kit-Ser/Thr 03 Peptide); assay type: biochemical; details: 4 hours at 37° C, read-out: IC50 for inhibiting MEK kinase (MEK1)
T6 construct: purchased Invitrogen PV3093
T6 sequence (Q02750 whole entry): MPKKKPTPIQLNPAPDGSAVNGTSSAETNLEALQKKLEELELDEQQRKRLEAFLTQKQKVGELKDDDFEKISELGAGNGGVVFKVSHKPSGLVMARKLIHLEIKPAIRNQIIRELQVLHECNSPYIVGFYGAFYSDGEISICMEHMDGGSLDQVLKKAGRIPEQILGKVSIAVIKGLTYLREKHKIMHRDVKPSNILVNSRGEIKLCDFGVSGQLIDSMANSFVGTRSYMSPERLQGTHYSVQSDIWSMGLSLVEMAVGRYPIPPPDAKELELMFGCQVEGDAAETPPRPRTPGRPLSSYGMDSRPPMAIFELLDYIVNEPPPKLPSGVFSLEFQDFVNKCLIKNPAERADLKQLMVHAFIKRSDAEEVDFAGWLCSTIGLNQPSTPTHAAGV
Method: MEK1 kinase activity was tested in vitro by the following method.
MEK kinase used in the assay: MEK1 (Recombinant Human Protein, Invitrogen, Catalog No. PV3093).
Kit used in the assay: Z′-LYTE™ Kinase Assay Kit-Ser/Thr 03 Peptide (Invitrogen, Catalog No. PV3176).
The following in vitro assay was used to determine the activity of the compounds of the present invention for inhibiting the […] MEK kinase. The test compound was dissolved in dimethyl sulfoxide to the desired concentration. 1× Buffer A (Invitrogen, Catalog No. PV3189) was prepared, ATP was diluted with 1× Buffer A to obtain 400 μM ATP solution, appropriate amounts of Z′-LYTE™ Ser/Thr 03 Peptide (Invitrogen, Catalog No. PV3200), MEK kinase (MEK1) Enzymes and 1× Buffer A were mixed, and appropriate amounts of Z′-LYTE™ Ser/Thr 03 phosphoPeptide substrate (Invitrogen, Catalog No. PV3215) and 1× Buffer A were formulated into a mixture to be tested. The 4% DMSO solution of the test compound was prepared from 1× buffer and DMSO solution of the test compound. 2.5 μL DMSO solution of the test compound was added to a reaction well, and then 1× Buffer A, 2.5 μL of 400 μM ATP solution, 5 μL of enzyme and substrate mixture were added to become a 10 μL of reaction system. The reaction system was incubated for 4 hours at 37° C., and a mixture was prepared according to Reagent A:Buffer B=1:1024. 5 μL of a mixture of Reagent A (Invitrogen, Catalog No. PV3295) and Buffer B (Invitrogen, Catalog No. P3127) was added to a reaction well, the reaction system was incubated for 60 minutes at 25° C. The fluorescence was read by a NovoStar ELISA with excitation wavelength: 400 nm, and emission wavelength: 445 nm and 520 nm.
The activity of the compounds of the present invention: The above assay was used to determine the biochemical activity of the compounds of the present invention for inhibiting MEK kinase (MEK1).

SMILES	IC50 (CYP3A4t) [µM]	IC50 (CYP2C6) [µM]	IC50 (CYP3A4m) [µM]	IC50 (CYP2C9) [µM]	IC50 (CYP2C19) [µM]	IC50 (CYP1A2) [µM]	IC50 (Colo205 cell) [µM]	IC50 [1] [µM]
CC(=O)Nc1cccc(Oc2cc(=O)n(C)c(Nc3ccc(I)cc3F)c2C(N)=O)c1C [Example 4, 4-(3-acetamido-2-methylphenoxy)-2-((2-fluoro-4-iodophenyl)amino)-1-methyl-6-oxo-1,6-dihydropyridine-3-carboxamide]	> 50	> 50	> 50	> 50	> 10	> 10	0.0008	0.004
Cc1cncc(Oc2cc(=O)n(C)c(Nc3ccc(I)cc3F)c2C(N)=O)c1 [Example 30, 2-((2-fluoro-4-iodophenyl)amino)-1-methyl-4-((5-methylpyridin-3-yl)oxy)-6-oxo-1,6-dihydropyridine-3-carboxamide]	> 10	> 10	> 10	> 10	> 10	> 10		0.006
